T1: B. subtilis ArsC (Bs_ArsC), reduced state re-ArsC (Bacillus subtilis, UniProt P45947)
T1 construct: full-length, 139 residues; recombinant, prepared as previously reported; reduced state (C10, C82, C89 free thiols)
T1 sequence (P45947 1-139): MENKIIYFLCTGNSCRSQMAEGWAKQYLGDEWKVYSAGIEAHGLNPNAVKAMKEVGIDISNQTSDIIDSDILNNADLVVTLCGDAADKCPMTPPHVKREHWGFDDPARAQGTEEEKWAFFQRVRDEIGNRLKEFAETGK

T2: B. subtilis arsenate reductase ArsC_C10SC15AC82S mutant (ArsC in the Trx-complexed state) (B. subtilis, UniProt P45947 1-139, C10S | C15A | C82S, C89 forms an intermolecular disulfide bond with Trx (C89^ArsC-C29^Trx); 15N-labeled in one sample, unlabeled in the other)
T2 construct: Thioredoxin-coupled arsenate reductase ArsC, Bacillus subtilis; triple mutant C10S/C15A/C82S used to trap the mixed-disulfide complex; also called c-ArsC; source: purity greater than 95% by SDS-PAGE
T2 sequence: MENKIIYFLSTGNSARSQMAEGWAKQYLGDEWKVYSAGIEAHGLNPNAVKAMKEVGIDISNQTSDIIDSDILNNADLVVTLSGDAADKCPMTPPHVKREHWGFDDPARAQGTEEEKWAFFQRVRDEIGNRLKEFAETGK

B1: B. subtilis thioredoxin Trx_C32S mutant (Trx in the ArsC-complexed state) (enzyme)
chain: MAIVKATDQSFSAETSEGVVLADFWAPWCGPSKMIAPVLEELDQEMGDKLKIVKIDVDENQETAGKYGVMSIPTLLVLKDGEVVETSVGFKPKEALQELVNKHL
modifications: C29 in the mixed disulfide with ArsC C89 (C89^ArsC-C29^Trx); 15N-labeled in one sample, unlabeled in the other
notes: Thioredoxin (Trx), Bacillus subtilis; C32S mutant used to trap the mixed-disulfide complex; also called c-Trx; source: purity greater than 95% by SDS-PAGE

How the values were obtained:
[1] = target: T1, B. subtilis ArsC (Bs_ArsC), reduced state re-ArsC; assay: isothermal titration calorimetry; type: binding
[2] = target: T2, B. subtilis arsenate reductase …; assay: preparation of a mixed-disulfide complex (DTNB incubation), studied by NMR (15N CPMG RD, CEST); Trx_C32S and ArsC_C10SC15AC82S linked by an intermolecular disulfide with the 5,5-dithiobis(2-nitrobenzoic acid) incubation protocol; NMR samples in 20 mM Tris-HCl (pH 6.85), 40 mM KCl, 20 mM urea, 20 mM Na2SO4; 25 °C; conditions: both partners purified

| Molecule | Kd [1] | binding result [2] |
| --- | --- | --- |
| O=S(=O)(O)O [sulfate] | 700 µM |  |
| B1 |  | binds |
